Reference: US20040033276A1, “Coating composition for cereals having a preventive or treating effect on diabetes and cereals coated thereby” (priority 2002, published 2004)

System: α-glucosidase
Experiment: Inhibition of α-glucosidase by extracts of herb medicine
Format: biochemical
Settings: 0.1 ml extract
Method: Inhibitory activities of various herb extracts on the activity of α-glucosidase, which catalyzes the digestion of a polysaccharide to monosaccharides, were examined as follows. Extracts of various herb medicines listed in Table 4 below were prepared in accordance with the method of Reference Example 2. Added to 0.27 ml of 2 mM substrate (p-nitrophenyl-α-D-glucopyranoside, Sigma, U.S.A.) were 0.03 ml of α-glucosidase(Sigma, U.S.A.), 0.2 ml of 20 mM phosphate buffer (pH 7.0) and 0.1 ml of respective extracts obtained above. The resulting mixture was incubated in a 37° C. thermostat(Vision Science, Korea) for 30 minutes, and 0.5 ml of 1 M glycine-NaOH (pH 9.0) was added thereto to stop the reaction. […] Negative control was treated with distilled water instead of the herb extract, and positive control, with acarbose(Glucobay™, Bayer) and DNJ (Deoxynojirimycin, Dep. Seruculture & Entomology, NIAST), which are representative α-glucosidase inhibitors. Activities of the respective extracts for inhibiting α-glucosidase were calculated by the following equation and the result is shown in Table 4. Inhibition (%)=(1−Absorbance of a sample/Absorbance of the negative control)×100

Inhibition (%) (relative to negative control): 80.79% | Absorbance (405 nm, 37° C., 30 minutes): 0.7641 ± 0.0021
Structure (SMILES): OC[C@H]1NC[C@H](O)[C@@H](O)[C@@H]1O [DNJ, Deoxynojirimycin]
